According to US12391724B2, “Polypodoside sweet flavor modifier” (Firmenich Incorporated, priority 2019, dated 2025):

Columns and labels:
[1] = system: human panelists (sweetness); assay: paired comparison (2-AFC) taste test for sweetness with human panelists; assay type: in vivo
Procedure: Test samples containing experimental compounds were presented in pairs to the human panelist and they were asked to determine which of the sample is sweeter. […] A group of 10-16 or more panelists participated in each test. Subjects refrained from eating or drinking (except water) for at least 1 hour prior to the test. Subjects rinsed with water several times to clean the mouth.
Taste tests were performed with sucrose or HFCS as the sweetener in the presence or absence of compound. A 0.2% stock solution of compound in water with sodium bicarbonate was prepared and then this stock solution was diluted in the final sample to achieve the targeted final concentration of compound. For the sample evaluated at pH 2.8 the pH of the solution is decreased to about pH 2.8 using citric acid. Taste samples were also prepared in a low sodium phosphate buffer (pH 7.1; “LSB”) lacking sucrose or HFCS to evaluate the taste of the compound alone. Low sodium phosphate buffer consists of 0.3 mM KCl, 0.5 mM Na2HPO4, and 0.175 mM KH2PO4. Sample volumes are usually 20 ml.
In one paired comparison test, the panelist was presented with two different samples and asked to identify the sample which is sweeter. The samples within a paired comparison test were presented in a randomized, counterbalanced order. Panelists had up to a 1 minute delay between taste tests to clear the mouth of any tastes.
Binomial probability tables were used to determine the probability of the correct number of responses occurring for each test at alpha=0.05
Paired comparison taste test for sweetness (0.25 mL sample size)

T1R2/T1R3 receptor = target: T1, T1R2/T1R3 receptor (Homo sapiens, UniProt Q7RTX0+Q8TE23); assay: activation of the T1R2/T1R3 receptor; assay type: cell-based
T1 sequence (Q8TE23 20-839): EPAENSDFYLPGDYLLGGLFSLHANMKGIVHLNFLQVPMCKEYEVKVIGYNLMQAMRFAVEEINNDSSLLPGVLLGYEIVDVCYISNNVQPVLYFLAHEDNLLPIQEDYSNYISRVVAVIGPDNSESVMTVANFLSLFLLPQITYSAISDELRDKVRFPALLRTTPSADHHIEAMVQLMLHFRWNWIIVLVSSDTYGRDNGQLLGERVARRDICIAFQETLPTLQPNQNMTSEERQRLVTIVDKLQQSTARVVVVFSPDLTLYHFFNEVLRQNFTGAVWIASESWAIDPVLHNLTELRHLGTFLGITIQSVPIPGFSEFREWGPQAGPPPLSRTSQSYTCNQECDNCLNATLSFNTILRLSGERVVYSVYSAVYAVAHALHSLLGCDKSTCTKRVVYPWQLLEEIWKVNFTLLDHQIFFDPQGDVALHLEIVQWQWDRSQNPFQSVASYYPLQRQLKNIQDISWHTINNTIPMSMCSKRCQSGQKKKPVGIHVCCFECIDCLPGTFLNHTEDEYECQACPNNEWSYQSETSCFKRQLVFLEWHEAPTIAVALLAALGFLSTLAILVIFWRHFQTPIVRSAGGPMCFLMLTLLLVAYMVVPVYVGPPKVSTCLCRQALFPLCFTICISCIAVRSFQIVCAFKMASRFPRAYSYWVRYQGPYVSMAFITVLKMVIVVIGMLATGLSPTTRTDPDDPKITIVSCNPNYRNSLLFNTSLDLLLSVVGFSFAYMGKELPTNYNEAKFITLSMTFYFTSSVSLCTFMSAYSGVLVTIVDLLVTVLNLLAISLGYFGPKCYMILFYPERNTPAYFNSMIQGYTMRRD
T1 sequence (Q7RTX0 21-852): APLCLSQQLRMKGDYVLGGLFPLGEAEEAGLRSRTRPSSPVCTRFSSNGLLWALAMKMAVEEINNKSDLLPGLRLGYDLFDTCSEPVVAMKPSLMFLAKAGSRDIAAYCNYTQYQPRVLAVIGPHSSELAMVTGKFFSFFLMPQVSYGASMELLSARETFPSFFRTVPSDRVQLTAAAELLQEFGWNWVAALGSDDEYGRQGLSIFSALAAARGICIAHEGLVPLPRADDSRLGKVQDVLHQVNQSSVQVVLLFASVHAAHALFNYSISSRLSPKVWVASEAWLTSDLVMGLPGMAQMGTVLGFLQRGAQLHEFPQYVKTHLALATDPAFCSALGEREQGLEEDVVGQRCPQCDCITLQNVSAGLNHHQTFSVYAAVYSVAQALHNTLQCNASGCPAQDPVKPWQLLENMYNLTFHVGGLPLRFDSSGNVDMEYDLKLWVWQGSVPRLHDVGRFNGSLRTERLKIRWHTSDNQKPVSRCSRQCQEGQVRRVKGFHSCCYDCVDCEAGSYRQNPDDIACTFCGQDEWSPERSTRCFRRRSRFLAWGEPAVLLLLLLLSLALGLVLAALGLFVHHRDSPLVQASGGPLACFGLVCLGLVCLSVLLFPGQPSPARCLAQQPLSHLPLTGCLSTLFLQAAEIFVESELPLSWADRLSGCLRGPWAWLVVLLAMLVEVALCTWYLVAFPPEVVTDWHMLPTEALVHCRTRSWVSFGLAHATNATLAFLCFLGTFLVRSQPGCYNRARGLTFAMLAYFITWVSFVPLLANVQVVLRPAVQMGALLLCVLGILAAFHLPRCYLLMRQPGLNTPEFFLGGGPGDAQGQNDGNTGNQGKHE
Description: The present isolated compounds have been tested and shown sweet taste modifying activities.

[2] = 4% sucrose vs 0% sucrose + 87 ppm compound, LSB pH 7.1, total 42
[3] = 4% sucrose vs 0% sucrose + 100 ppm compound, pH 7.1, total 36
[4] = 4% sucrose vs 0% sucrose + 125 ppm compound, pH 7.1, total 42
[5] = 4% sucrose vs 0% sucrose + 150 ppm compound, pH 7.1, total 36

Polypodoside D was tested, and the “Sample selected as sweeter by panelists: 0% Sucrose + Cmpd” value (shortened to “Sample selected … 0% Sucrose + Cmpd”) [1, 2] was 18, the “Sample selected as sweeter by panelists: 4% Sucrose” value (shortened to “Sample selected … 4% Sucrose”) [1, 2] was 24 and the “sweetness of 4% Sucrose compared with the sample (in words)” value ([1]; 4% sucrose vs LSB + 87 ppm compound, pH ~7.1) was “not significantly different in sweetness”. The “sweet taste and potency in sensory studies (in words)” value ([1]; compared with Rebaudioside A) was “has a sweet taste and demonstrates higher potency than Rebaudioside A” and the EC50 (T1R2/T1R3 receptor) was 4.15 µM.
With CC1CCC(C(C)C2CCC3C4=CC(=O)C5CC(OC6OC(CO)C(OC7OC(C)C(O)C(O)C7O)C(O)C6O)CCC5(C)C4CCC32C)OC1OC1OC(C)C(O)C(O)C1O (centres unmarked) [Polypodoside G] the EC50 (T1R2/T1R3 receptor) was 18.7 µM.
C=C1C[C@@]23CC[C@H]4[C@@](C)(CCC[C@@]4(C)C(=O)O[C@@H]4O[C@H](CO)[C@@H](O)[C@H](O)[C@H]4O)[C@@H]2CC[C@]1(O[C@@H]1O[C@H](CO)[C@@H](O)[C@H](O[C@@H]2O[C@H](CO)[C@@H](O)[C@H](O)[C@H]2O)[C@H]1O[C@@H]1O[C@H](CO)[C@@H](O)[C@H](O)[C@H]1O)C3 [Reb A, Rebaudioside A] was tested, and the “concentration equivalent to 4% sucrose” value ([1]; 2-AFC, pH 7.1) was 125 ppm Reb A is equivalent to 4% sucrose, the “Sample selected … 0% Sucrose + Cmpd” value [1, 3] was 8 and the “Sample selected … 4% Sucrose” value [1, 3] was 28. For the same compound, the “Sample selected … 0% Sucrose + Cmpd” value [1, 4] was 22, the “Sample selected … 4% Sucrose” value [1, 4] was 20 and the “Sample selected … 0% Sucrose + Cmpd” value [1, 5] was 24. The “Sample selected … 4% Sucrose” value [1, 5] was 12.
COCC(C1CCC(C)C(OC2OC(C)C(O)C(O)C2O)O1)C1CCC2C3=CC(=O)C4CC(OC5OC(CO)C(O)C(O)C5O)CCC4(C)C3CCC21C (centres unmarked) [Polypodoside E] was tested, and the EC50 (T1R2/T1R3 receptor) was 18.4 µM.
